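Following 48 hours of exposure in 96-well plates, responses at five concentrations were used to interpolate endpoints linearly. TGI: total growth inhibition.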
Tests used:
Experiment in all cases: NCI-60 cell line screen, 48 h
OVCAR-4 ovarian = tested on: OVCAR-4 ovarian
SK-MEL-2 melanoma = tested on: SK-MEL-2 melanoma
COLO 205 colon = tested on: COLO 205 colon
OVCAR-8 ovarian = tested on: OVCAR-8 ovarian
HCT-15 colon = tested on: HCT-15 colon
XF 498 CNS = tested on: XF 498 CNS
UACC-62 melanoma = tested on: UACC-62 melanoma
ACHN renal = tested on: ACHN renal
SK-MEL-28 melanoma = tested on: SK-MEL-28 melanoma
SF-268 CNS = tested on: SF-268 CNS
NCI-H226 lung = tested on: NCI-H226 lung
CAKI-1 renal = tested on: CAKI-1 renal
U251 CNS = tested on: U251 CNS
LXFL 529 NSCLC = tested on: LXFL 529 NSCLC
DMS 114 small cell lung = tested on: DMS 114 small cell lung
SN12C renal = tested on: SN12C renal
MALME-3M melanoma = tested on: MALME-3M melanoma
SK-OV-3 ovarian = tested on: SK-OV-3 ovarian
OVCAR-5 ovarian = tested on: OVCAR-5 ovarian
NCI-H460 lung = tested on: NCI-H460 lung
MOLT-4 leukemia = tested on: MOLT-4 leukemia
NCI-H522 lung = tested on: NCI-H522 lung
HOP-18 NSCLC = tested on: HOP-18 NSCLC
HT29 colon = tested on: HT29 colon
SW-620 colon = tested on: SW-620 colon
HCC-2998 colon = tested on: HCC-2998 colon
NCI-H23 lung = tested on: NCI-H23 lung
SNB-78 CNS = tested on: SNB-78 CNS
EKVX NSCLC = tested on: EKVX NSCLC
786-0 renal = tested on: 786-0 renal
UO-31 renal = tested on: UO-31 renal
RPMI-8226 leukemia = tested on: RPMI-8226 leukemia
KM12 colon = tested on: KM12 colon
HOP-62 NSCLC = tested on: HOP-62 NSCLC
RXF-631 renal = tested on: RXF-631 renal
SK-MEL-5 melanoma = tested on: SK-MEL-5 melanoma
SNB-75 CNS = tested on: SNB-75 CNS
KM20L2 colon = tested on: KM20L2 colon
CCRF-CEM leukemia = tested on: CCRF-CEM leukemia
K-562 leukemia = tested on: K-562 leukemia
SF-539 CNS = tested on: SF-539 CNS
A498 renal = tested on: A498 renal
SF-295 CNS = tested on: SF-295 CNS
IGROV1 ovarian = tested on: IGROV1 ovarian
HL-60(TB) leukemia = tested on: HL-60(TB) leukemia
A549 NSCLC = tested on: A549 NSCLC
M14 melanoma = tested on: M14 melanoma
SNB-19 CNS = tested on: SNB-19 CNS
DLD-1 colon = tested on: DLD-1 colon
LOX IMVI melanoma = tested on: LOX IMVI melanoma
OVCAR-3 ovarian = tested on: OVCAR-3 ovarian
M19-MEL melanoma = tested on: M19-MEL melanoma
DMS 273 small cell lung = tested on: DMS 273 small cell lung
UACC-257 melanoma = tested on: UACC-257 melanoma
TK-10 renal = tested on: TK-10 renal

Q: Which results are given for `Cc1cc2c(cc1C)[n+](=O)c(C(=O)/C=C/c1ccccc1Cl)c(C)n2[O-]`?
A: TGI (OVCAR-4 ovarian): > 100 µM; TGI (SK-MEL-2 melanoma): 68.7 µM; TGI (COLO 205 colon): 36.9 µM; TGI (OVCAR-8 ovarian): 63.8 µM; TGI (HCT-15 colon): 75.3 µM; TGI (XF 498 CNS): 42.1 µM; TGI (UACC-62 melanoma): 35.1 µM; TGI (ACHN renal): 58.1 µM; TGI (SK-MEL-28 melanoma): 86.8 µM; TGI (SF-268 CNS): 95.9 µM; TGI (NCI-H226 lung): > 100 µM; TGI (CAKI-1 renal): 43.2 µM; TGI (U251 CNS): 84.4 µM; TGI (LXFL 529 NSCLC): 34.6 µM; TGI (DMS 114 small cell lung): 53.4 µM; TGI (SN12C renal): > 100 µM; TGI (MALME-3M melanoma): 94.5 µM; TGI (SK-OV-3 ovarian): 73.1 µM; TGI (OVCAR-5 ovarian): > 100 µM; TGI (NCI-H460 lung): 63.7 µM; TGI (MOLT-4 leukemia): > 100 µM; TGI (NCI-H522 lung): 26.7 µM; TGI (HOP-18 NSCLC): > 100 µM; TGI (HT29 colon): > 100 µM; TGI (SW-620 colon): > 100 µM; TGI (HCC-2998 colon): 34.2 µM; TGI (NCI-H23 lung): 46.7 µM; TGI (SNB-78 CNS): > 100 µM; TGI (EKVX NSCLC): > 100 µM; TGI (786-0 renal): 30.3 µM; TGI (UO-31 renal): 48.2 µM; TGI (RPMI-8226 leukemia): > 100 µM; TGI (KM12 colon): 96.2 µM; TGI (HOP-62 NSCLC): 58.9 µM; TGI (RXF-631 renal): 84.9 µM; TGI (SK-MEL-5 melanoma): 59.6 µM; TGI (SNB-75 CNS): 47.5 µM; TGI (KM20L2 colon): > 100 µM; TGI (CCRF-CEM leukemia): > 100 µM; TGI (K-562 leukemia): > 100 µM; TGI (SF-539 CNS): 42.6 µM; TGI (A498 renal): 96.7 µM; TGI (SF-295 CNS): > 100 µM; TGI (IGROV1 ovarian): 37.9 µM; TGI (HL-60(TB) leukemia): 99.6 µM; TGI (A549 NSCLC): > 100 µM; TGI (M14 melanoma): 51.7 µM; TGI (SNB-19 CNS): > 100 µM; TGI (DLD-1 colon): 42.1 µM; TGI (LOX IMVI melanoma): > 100 µM; TGI (OVCAR-3 ovarian): 88.8 µM; TGI (M19-MEL melanoma): > 100 µM; TGI (DMS 273 small cell lung): > 100 µM; TGI (UACC-257 melanoma): 57.5 µM; TGI (TK-10 renal): 57.3 µM

From PubChem BioAssay (NCI)
